A short description of the first data set: method code SF-CR, from DOI: 10.3891/acta.chem.scand.05-0774.
Take `COCOC`: the logP was determined as 0.

`CC(O)C(C)O` (centres undefined) returned a logP of -0.92.

In turn, `COC(C)=O` yielded a logP of 0.18.

Experiment in another data set: not given
Consider `CC(O)CNCC(C)O` (centres undefined), for which the log partition coefficient (logP) is -0.82.

`CC(O)CN` (centres undefined) showed a logP of -0.96.

In turn, `C1CNCCN1` yielded a logP of -1.17.

Consider `OCCNCCO`, for which the logP is -1.43.

Take `NCCO`: the logP is -1.31.

Another data set can be described thus: method code SF-TN, from DOI: 10.3891/acta.chem.scand.05-0774.
`O=C(O)CBr`: the logP is 0.41.

As for `O=C(O)CCCCCCCC(=O)O`, the logP was determined as 1.59.

The compound `CC(C)(O)C(=O)O` came in with a logP of -0.36.

For `O=C(O)CC(O)C(=O)O` (centres undefined), the logP is -1.26.

As to `CCC(Br)C(=O)O` (centres undefined), the logP is 1.42.

As for `CC(Br)C(=O)O` (centres undefined), the log partition coefficient (logP) is 0.92.

For the origin of these results see the SangsterLogP compilation.
